Data: PubChem BioAssay AID743396 (Broad Institute, 2014)
The source made the active and inactive calls.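 The calls were made as follows: active = fitted curve reaches a 40% rise in fluorescent cells at or below the top valid dose; inactive = opposite-direction effect, or the rest.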

Test system: mTEFS fibroblasts autofluorescence, GFP-channel imaging, 3 days
Assay: autofluorescent compounds in non-GFP fibroblasts, dose response, artefact control for X-chromosome reactivation project, imaging, mTEFS fibroblasts, cherry-pick (AID 743396)
Conditions: cells pretreated with 5-aza-dC

Structure (SMILES) | AC40
O=C1c2ccccc2C(=O)C1c1ccccc1 | > 19.5 µM (inactive)
COc1ccc(N2CCN(C(=O)c3cc4c(s3)-c3ccccc3OC4)CC2)cc1 | > 19.5 µM (inactive)
N#Cc1ccccc1Cn1cc(/C=N/Nc2ccc([N+](=O)[O-])cn2)c2ccccc21 | 16.1 µM
COC(=O)C1=C(C)NC(C)=C(C(=O)OC)C1C(=O)OCC(=O)c1ccc(F)cc1 | > 19.5 µM (inactive)
O=C(NCc1ccccc1)c1cccc2c1C(=O)c1ccc(/C=C/c3ccccc3)cc1S2(=O)=O | 15 µM
COc1ccc(N(C)S(=O)(=O)c2cccc(C(=O)NCC(c3cccs3)N(C)C)c2)cc1 (configuration not stated) | 13.9 µM
CC(=NNc1nc2ccccc2o1)c1cc2ccccc2cn1 | 8.99 µM
N#C/C(=C/c1ccc(-c2ccc(S(N)(=O)=O)cc2)o1)c1nc2ccccc2s1 | 2.25 µM
COc1ccc(Cn2cc3c(-c4ccc(F)cc4)nnc-3c3cc(OC)c(OC)cc32)cc1 | 6.18 µM
Cc1cc(C)cc(NC(=O)/C=C/c2ccc([N+](=O)[O-])s2)c1 | 9.04 µM
CC(O)CN(CC(C)O)c1ccc2c(c1)Cc1cc([N+](=O)[O-])ccc1-2 (configuration not stated) | > 19.5 µM (inactive)
COc1cc(N2CCCC2)c(OC)cc1/C=C1/NC(=S)NC1=O | > 19.5 µM (inactive)
Cc1nonc1NC(=O)CSc1nc2c(C)cccc2cc1C#N | 9.02 µM
O=C(N/N=C\c1c(O)ccc2ccccc12)c1ccc(S(=O)(=O)N2CCCCC2)cc1 | 19.2 µM
C[C@H]1CN([C@@H](C)CO)S(=O)(=O)c2ccc(Br)cc2O[C@H]1CN(C)C(=O)c1cccnc1 | > 6.8 µM (inactive)
CCN(CC)c1ccc(/C=C(/C#N)C(=O)NCc2ccccc2)o1 | 5.55 µM
CC(=O)[C@@]1(O)Cc2c(O)c3c(c(O)c2[C@H](O[C@H]2C[C@H](N)[C@H](O)[C@H](C)O2)C1)C(=O)c1ccccc1C3=O | > 2.1 µM (inactive)
